US5106871A, “Anti-ulcer agent comprising chalcone derivative as effective ingredient and novel chalcone derivative” (Tsumura & Co., priority 1986, dated 1992)
Like-named read-outs stand apart in the source and are kept apart here.

Legend:
Format in all cases: in vivo, male rats of the Wister line
gastric mucous membrane [1] = assay: 100% ethanol-induced gastric mucous membrane damage in rats (Experimental Example 1); details: for inhibition in vivo at 100 mg/kg: Rattus norvegicus, 1 h, vs control, read-out: Inhibition Ratio
Description: After 1 hour from the administration of 100% ethanol, the abdominal operation was carried out, and the length of the damaged region on the gastric mucous membrane was measured as the mucous membrane damage coefficient and compared with the value obtained in the control group. Note, a 0.5% solution of CMC not containing a compound of formula I was intraabdominally or orally administered in the control group.

gastric mucous membrane [2] = assay: 0.6N hydrochloric acid-induced gastric mucous membrane damage in rats (Experimental Example 2); details: for Inhibition Ratio: vs control
Description: A suspension of a compound of formula I in a […] of CMC (carboxymethyl cellulose) was intraabdominally administered in male rats of the Wister line (each group consisting of 10 rats) having a body weight of 180 to 200 g, which had been made to fast for 24 hours, and after 30 minutes, 1 ml of 0.6N hydrochloric acid was orally administered. After 1 hour from the administration of 0.6N hydrochloric acid, the abdominal operation was carried out, and the length of the damage on the gastric mucous membrane was measured as the mucous membrane damage coefficient and compared with the value obtained in the control group in the control group. Note, a 0.5% solution of CMC was intraabdominally administered. Data of the inhibition ratio calculated according to the following formula is shown in Tables 5 through 7: [formula] wherein A stands for the value obtained in the control group and B stands for the value obtained in the group in which the compound of formula I had been administered.

gastric mucous membrane [3] = assay: 150 mM hydrochloric acid/60% ethanol-induced gastric mucous membrane damage in rats (Experimental Example 3); details: 150 mM HCl/60% ethanol; for Inhibition Ratio: vs control
Description: A suspension of a compound of formula I in a 0.5 % solution of CMC (carboxymethyl cellulose) was intraabdominally or orally administered in male rats of the Wister line (each group consisting of 10 rats) having a body weight of 180 to 200 g, which had been made to fast for 24 hours, and after 30 minutes, 1 ml of a liquid mixture of 150 mM hydrochloric acid and 60% ethanol was orally administered. After 1 hour from the administration of the liquid mixture of 150 mM hydrochloric acid and 60% ethanol, the abdominal operation was carried out, and the length of the damage on the gastric mucous membrane was measured as the mucous membrane damage coefficient and compared with the value obtained in the control group. Note, a 0.5% solution of CMC not containing a compound of formula I was intra-abdominally or orally administered in the control group. Data of the inhibition ratio calculated according to the following formula is shown in Tables 8 through 10: [formula] wherein A stands for the value obtained in the control group and B stands for the value obtained in the group in which the compound of formula I had been administered.

[4] = Table 3, 100 mg/kg i.p., control 72.63
[5] = Table 6, 100 mg/kg i.p., control 106.3
[6] = Table 9, 30 mg/kg p.o., control 84.3
[7] = Table 10, 30 mg/kg i.p., control 110.7
[8] = Table 4, 100 mg/kg i.p., control 72.3
[9] = Table 8, 100 mg/kg p.o., control 119.0

For COc1ccc(CCC(=O)c2ccc(OC)c(CCC(C)C)c2OCC(=O)O)cc1 [Specific Example 3, 1-(carboxymethoxy-4-methoxy-3-isopentylphenyl)-3-(4-methoxyphenyl)-1-propanone], the inhibition in vivo at 100 mg/kg (gastric mucous membrane [1]; ip, Table 1, 100 mg/kg i.p.) was 63.4%, the inhibition in vivo at 100 mg/kg (gastric mucous membrane [1]; po, Table 2, 100 mg/kg p.o.) was 93.2% and the “Mucous Membrane Damage Coefficient” value (gastric mucous membrane [1]; Table 1, 100 mg/kg i.p., control 102.6) was 37.6 mm. The “Mucous Membrane Damage Coefficient” value (gastric mucous membrane [1]; Table 2, 100 mg/kg p.o., control 87.7) was 6.0 mm, the “Mucous Membrane Damage Coefficient” value (gastric mucous membrane [2]; Table 5, 100 mg/kg i.p., control 65.8) was 61.8 mm and the “Inhibition Ratio” value (gastric mucous membrane [2]; Table 5, 100 mg/kg i.p.) was 68.1%.

COc1cc(CCC(=O)c2c(OC)cc(OC)c(CCC(C)C)c2OCC(=O)O)ccc1O [Specific Example 5, 1-(2-carboxymethoxy-4,6-dimethoxy-3-isopentylphenyl)-3-(4-hydroxy-3-methoxyphenyl)-1-propanone] was tested, and the inhibition in vivo at 100 mg/kg (gastric mucous membrane [1]; ip, Table 3, 100 mg/kg i.p.) was 27.9% and the “Mucous Membrane Damage Coefficient” value (gastric mucous membrane [1]; [4]) was 52.38 mm.

With COc1ccc(CCC(=O)c2c(OC)cc(OC)c(CCC(C)C)c2OCC(=O)O)cc1O [Specific Example 6, 1-(2-carboxymethoxy-4,6-dimethoxy-3-isopentylphenyl)-3-(3-hydroxy-4-methoxyphenyl)-1-propanone] the inhibition in vivo at 100 mg/kg (gastric mucous membrane [1]; ip, Table 3, 100 mg/kg i.p.) was 32.4% and the “Mucous Membrane Damage Coefficient” value (gastric mucous membrane [1]; [4]) was 49.13 mm.

COc1cc(CCC(=O)c2c(OC)cc(OC)c(CCC(C)C)c2OCC(=O)O)cc(OC)c1O [Specific Example 7, 1-(2-carboxymethoxy-4,6-dimethoxy-3-isopentylphenyl)-3-(4-hydroxy-3,5-dimethoxyphenyl)-1-propanone] was tested, and the inhibition in vivo at 100 mg/kg (gastric mucous membrane [1]; ip, Table 3, 100 mg/kg i.p.) was 32.5% and the “Mucous Membrane Damage Coefficient” value (gastric mucous membrane [1]; [4]) was 49.00 mm.

For COc1ccc(/C=C/C(=O)c2ccc(OC)c(CC=C(C)C)c2OCC(=O)O)cc1 [Specific Example 8, 2'-carboxymethoxy-4,4'-dimethoxy-3'-(3-methyl-2-butenyl)chalcone], the inhibition in vivo at 100 mg/kg (gastric mucous membrane [1]; ip, Table 3, 100 mg/kg i.p.) was 78.5%, the “Mucous Membrane Damage Coefficient” value (gastric mucous membrane [1]; [4]) was 15.63 mm and the “Mucous Membrane Damage Coefficient” value (gastric mucous membrane [2]; [5]) was 62.4 mm. For the same molecule, the “Inhibition Ratio” value (gastric mucous membrane [2]; Table 6, 100 mg/kg i.p.) was 41.3%.

For COc1ccc(/C=C/C(=O)c2c(OC)cc(OC)c(CCC(C)C)c2OCC(=O)O)cc1 [Specific Example 9, 2'-carboxymethoxy-4,4',6'-trimethoxy-3'-isopentylchalcone], the inhibition in vivo at 100 mg/kg (gastric mucous membrane [1]; ip, Table 3, 100 mg/kg i.p.) was 93.1%, the “Mucous Membrane Damage Coefficient” value (gastric mucous membrane [1]; [4]) was 5.00 mm and the “Mucous Membrane Damage Coefficient” value (gastric mucous membrane [2]; [5]) was 39.6 mm. For the same molecule, the “Inhibition Ratio” value (gastric mucous membrane [2]; Table 6, 100 mg/kg i.p.) was 62.3%.

For COc1ccc(CCC(=O)c2c(OC)cc(OC)cc2OCC(=O)O)cc1 [Specific Example 11, 1-(2-carboxymethoxy-4,6-dimethoxyphenyl)-3-(4-methoxyphenyl)-1-propanone], the inhibition in vivo at 100 mg/kg (gastric mucous membrane [1]; ip, Table 3, 100 mg/kg i.p.) was 92.8%, the “Mucous Membrane Damage Coefficient” value (gastric mucous membrane [1]; [4]) was 5.25 mm and the “Mucous Membrane Damage Coefficient” value (gastric mucous membrane [2]; [5]) was 36.6 mm. For the same molecule, the “Inhibition Ratio” value (gastric mucous membrane [2]; Table 6, 100 mg/kg i.p.) was 65.6%.

COc1ccc(CCC(=O)c2c(OC)cc(OC)c(CC=C(C)C)c2OCC(=O)O)cc1 [Specific Example 12, 1-[2-carboxymethoxy-4,6-dimethoxy-3-(3-methyl-2-butenyl)phenyl]-3-(4-methoxyphenyl) -propanone] was tested, and the inhibition in vivo at 100 mg/kg (gastric mucous membrane [1]; ip, Table 3, 100 mg/kg i.p.) was 43.2%, the “Mucous Membrane Damage Coefficient” value (gastric mucous membrane [1]; [4]) was 41.25 mm and the “Mucous Membrane Damage Coefficient” value (gastric mucous membrane [2]; [5]) was 76.6 mm. The “Inhibition Ratio” value (gastric mucous membrane [2]; Table 6, 100 mg/kg i.p.) was 27.8%.

With O=C(/C=C/c1ccc(O)cc1)c1ccc(O)cc1O [Specific Example 15, 2',4,4'-trihydroxychalcone] the “Mucous Membrane Damage Coefficient” value (gastric mucous membrane [3]; [6]) was 30.0 mm, the “Inhibition Ratio” value (gastric mucous membrane [3]; Table 9, 30 mg/kg p.o.) was 64.4% and the “Mucous Membrane Damage Coefficient” value (gastric mucous membrane [3]; [7]) was 49.5 mm. For the same molecule, the “Inhibition Ratio” value (gastric mucous membrane [3]; Table 10, 30 mg/kg i.p.) was 55.3%.

With COc1ccc(/C=C/C(=O)c2ccc(OC)c(CC=C(C)C)c2O)cc1 [Specific Example 16, 2'-hydroxy-4,4'-dimethoxy-3'-(3-methyl-2-butenyl)chalcone] the inhibition in vivo at 100 mg/kg (gastric mucous membrane [1]; ip, Table 4, 100 mg/kg i.p.) was 36.4% and the “Mucous Membrane Damage Coefficient” value (gastric mucous membrane [1]; [8]) was 46.0 mm.

O=C(/C=C/c1ccc(O)c(O)c1)c1ccc(O)cc1O [Specific Example 19, 2',3,4,4'-tetrahydroxychalcone] was tested, and the “Mucous Membrane Damage Coefficient” value (gastric mucous membrane [3]; [6]) was 10.5 mm and the “Inhibition Ratio” value (gastric mucous membrane [3]; Table 9, 30 mg/kg p.o.) was 87.5%.

In the case of O=C(CCc1ccc(O)cc1)c1ccc(O)cc1O [Specific Example 22, 1-(2,4-dihydroxyphenyl)-3-(4-hydroxyphenyl)-1-propanone], the “Mucous Membrane Damage Coefficient” value (gastric mucous membrane [3]; [9]) is reported as 1.4 mm, the “Inhibition Ratio” value (gastric mucous membrane [3]; Table 8, 100 mg/kg p.o.) is reported as 98.8% and the “Mucous Membrane Damage Coefficient” value (gastric mucous membrane [3]; [6]) is reported as 57.2 mm. For the same molecule, the “Inhibition Ratio” value (gastric mucous membrane [3]; Table 9, 30 mg/kg p.o.) was 32.1%, the “Mucous Membrane Damage Coefficient” value (gastric mucous membrane [3]; [7]) was 54.2 mm and the “Inhibition Ratio” value (gastric mucous membrane [3]; Table 10, 30 mg/kg i.p.) was 51.0%.

With O=C(CCc1ccc(O)cc1)c1c(O)cc(O)cc1O [Specific Example 23, 1-(2,4,6-trihydroxyphenyl)-3-(4-hydroxyphenyl)-1-propanone] the inhibition in vivo at 100 mg/kg (gastric mucous membrane [1]; ip, Table 4, 100 mg/kg i.p.) was 36.7%, the “Mucous Membrane Damage Coefficient” value (gastric mucous membrane [1]; [8]) was 45.8 mm and the “Mucous Membrane Damage Coefficient” value (gastric mucous membrane [3]; [9]) was 67.9 mm. The “Inhibition Ratio” value (gastric mucous membrane [3]; Table 8, 100 mg/kg p.o.) was 43.0%.

In the case of CC(=O)Oc1c(CC=C(C)C)c(O)cc(O)c1C(=O)CCc1ccc(O)cc1 [Specific Example 24, 1-[2-acetoxy-4,6-hydroxy-3-(3-methyl-2-butenyl)phenyl]-3-(4-hydroxyphenyl)-1-propanone], the inhibition in vivo at 100 mg/kg (gastric mucous membrane [1]; ip, Table 4, 100 mg/kg i.p.) is reported as 23% and the “Mucous Membrane Damage Coefficient” value (gastric mucous membrane [1]; [8]) is reported as 55.7 mm.

For O=C(CCc1ccc(O)c(O)c1)c1ccc(O)cc1O [Specific Example 27, 1-(2,4-dihydroxyphenyl)-3-(3,4-dihydroxyphenyl)-1-propanone], the “Mucous Membrane Damage Coefficient” value (gastric mucous membrane [3]; [6]) was 1.5 mm, the “Inhibition Ratio” value (gastric mucous membrane [3]; Table 9, 30 mg/kg p.o.) was 98.2% and the “Mucous Membrane Damage Coefficient” value (gastric mucous membrane [3]; [7]) was 60.0 mm. The “Inhibition Ratio” value (gastric mucous membrane [3]; Table 10, 30 mg/kg i.p.) was 45.8%.

With O=C(CCc1ccc(O)c(O)c1)c1c(O)cc(O)cc1O [Specific Example 28, 1-(2,4,6-trihydroxyphenyl)-3-(3,4-dihydroxyphenyl)-1-propanone] the inhibition in vivo at 100 mg/kg (gastric mucous membrane [1]; ip, Table 4, 100 mg/kg i.p.) was 90%, the “Mucous Membrane Damage Coefficient” value (gastric mucous membrane [1]; [8]) was 7.2 mm and the “Mucous Membrane Damage Coefficient” value (gastric mucous membrane [3]; [9]) was 15.7 mm. The “Inhibition Ratio” value (gastric mucous membrane [3]; Table 8, 100 mg/kg p.o.) was 86.8%.

With CC(C)CCc1c(O)cc(O)c(C(=O)CCc2ccc(O)cc2)c1OCC(=O)O [Specific Example 32, 1-(2-carboxymethoxy-4,6-dihydroxy-3-isopentylphenyl)-3-(4-hydroxyphenyl)-1-propanone] the inhibition in vivo at 100 mg/kg (gastric mucous membrane [1]; ip, Table 4, 100 mg/kg i.p.) was 61.3% and the “Mucous Membrane Damage Coefficient” value (gastric mucous membrane [1]; [8]) was 28.0 mm.

For COc1ccc(CCC(=O)c2ccc(OC)c(CCC(C)C)c2O)cc1 [Specific Example 33, 1-(2-hydroxy-4-methoxy-3-isopentylphenyl)-3-(4-methoxyphenyl)-1-propanone], the inhibition in vivo at 100 mg/kg (gastric mucous membrane [1]; ip, Table 4, 100 mg/kg i.p.) was 40.1% and the “Mucous Membrane Damage Coefficient” value (gastric mucous membrane [1]; [8]) was 3.3 mm.

In the case of CC(C)CCc1cc(CCC(=O)c2c(O)cc(O)c(CCC(C)C)c2O)ccc1O [Specific Example 37, 1-(2,4,6-trihydroxy-3-isopentylphenyl)-3-(4-hydroxy-3-isopentylphenyl)-1-propanone], the inhibition in vivo at 100 mg/kg (gastric mucous membrane [1]; ip, Table 4, 100 mg/kg i.p.) is reported as 31.1% and the “Mucous Membrane Damage Coefficient” value (gastric mucous membrane [1]; [8]) is reported as 49.8 mm.
